Paper PMC5201275, “Structural and Catalytic Properties of S1 Nuclease from Aspergillus oryzae Responsible for Substrate Recognition, Cleavage, Non–Specificity, and Inhibition” (PLoS ONE, 2016)

Target: T1, S1 nuclease (S1wt; S1D65N) (Aspergillus oryzae, UniProt P24021)
T1 construct: gene nucS; Endo F1 deglycosylated for crystals; three Zn2+
T1 sequence (P24021 21-287): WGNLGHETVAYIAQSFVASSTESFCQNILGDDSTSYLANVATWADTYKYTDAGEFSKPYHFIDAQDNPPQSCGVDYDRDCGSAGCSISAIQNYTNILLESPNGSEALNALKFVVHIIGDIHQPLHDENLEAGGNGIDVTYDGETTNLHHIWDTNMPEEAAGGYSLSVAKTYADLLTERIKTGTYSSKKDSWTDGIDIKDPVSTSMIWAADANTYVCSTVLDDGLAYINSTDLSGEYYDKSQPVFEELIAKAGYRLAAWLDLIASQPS
Test: X-ray crystal structure
Type: binding

Compound	X-ray crystal structure (pH 5.5, zinc cluster, first binding mode, occupancy 0.5, not added (no co-crystallization), also in 5FBB (pH 6.5) and 5FBD (pH 4.2, second mode))	X-ray crystal structure (pH 4.2, NBS1, shallow mode, with phosphate in zinc cluster, co-crystallized with dC(pS)dC)
O=P(O)(O)O [Pi, phosphate ion]	A phosphate ion inside the zinc cluster in the first binding mode is modeled	–
Nc1ccn([C@H]2C[C@H](O)[C@@H](CO)O2)c(=O)n1 [dCyt, 2'–deoxycytidine]	–	The structure contains one phosphate ion and one molecule of dCyt in the active site
